Assay results reported in patent publication US12213957B2, “Use of aminoacetonitrile compounds for the treatment of infection and disease” (PITNEY PHARMACEUTICALS PTY LIMITED, priority 2020, dated 2025).
“And” between values parts separate entries of the source, which are not always exact repeats. Equal entries are not always repeated. Where two headings read alike, the source gives them in different places.

Legend:
CHO cells = settings: no virus, read-out: CHO and cell 1050 values for MPLS treatment alone; cited from earlier work
[1] = Blood plasma levels in pet dogs of the veterinary trial; type: in vivo, dog; settings: pet dogs, monepantel 179 mg/kg bw daily; one value per dog
Description: In a Phase 2 veterinary clinical trial, monepantel was administered as tablets daily to six pet dog patients (dog identification numbers: 001-001, 001-002, 001-003, 003-001, 004-002 and 004-003) with treatment naïve B cell lymphoma at a target dose of 179 mg/kg bw. Superficial tumour lesions were measured with calipers, while lesions within the body were assessed by X-Ray, ultrasound, computer tomography (CT) and/or physical palpitation. Baseline Day 0 (D0) predose caliper, X-Ray, ultrasound and CT measurements where available as well as a complete physical examination were recorded.
An inverse correlation between RECIST1.1 response and blood plasma levels of monepantel and monepantel sulfone was evident. The one dog (003-001) that achieved a partial response, recorded monepantel and […] of 0.1 and 6.7 μM, respectively.

SARS-CoV-2 [2] = type: cell-based
[3] = test system: VERO cells infected with SARS-CoV-2; type: cell-based; settings: approximately 10 μM MPLS
SARS-CoV-2 [4] = type: cell-based; settings: 40 μM and 8 μM compared to 0.064 μM, p<0.001
SARS-CoV-2 [5] = type: cell-based; settings: Calu-3 human cells, concentrations from 3.00 μM down to 0.013 μM
[6] = Blood plasma levels in human patients; type: in vivo; settings: monepantel as Zolvix 5 mg/kg bw daily
Description: In a Phase 1 b clinical trial, monepantel administered as Zolvix daily to four human patients (PA02, PA04, PA06 and PA07) at 5 mg/kg bw provided an anticancer effect by computerised tomography (CT) scanning according to RECIST1.1 criteria. […] Evidence of mTOR pathway signalling inhibition in these patients was supported by the finding of decreased eurkaryotic translation initiation factor 4E-binding protein 1 (EIF-4EBP1) phosphorylation levels from the preparations of PBMCs from PA02, PA04 and PA06 (FIG. 1B). EIF-4EIBP1 phosphorylation levels were not assayed from preparations of PBMCs from PA07.
Blood plasma monepantel and monepantel sulfone levels of all four patients were recorded at intervals throughout treatment (Table 2).

## C[C@](C#N)(COc1cc(C#N)ccc1C(F)(F)F)NC(=O)c1ccc(S(=O)(=O)C(F)(F)F)cc1 [MPLS, monepantel sulfone]
CHO cells
  IC50: 74 µM
[1]
  Blood plasma Monepantel sulfone Day 24: 26.1 µM
VERO cells
  toxic effect upon VERO cells infected with SARS-CoV-2 (LDH): minimal toxic effect
  toxicity caused by SARS-CoV-2: appeared to increase toxicity
  toxicity of VERO cells to SARS-CoV-2 infection: may slightly increase toxicity
  toxicity to VERO cells: no signs of toxicity
  toxicity to uninfected VERO cells: some toxicity
VERO cells; African green monkey
  SARS-CoV-2 toxicity: does not apparently increase SARS-CoV-2 toxicity
SARS-CoV-2 [2]; MPLS 11.11 μM (highest concentration), VERO cells
  SARS-CoV-2 infectivity (TCID50, repeat experiment) compared to no treatment: significantly reduces SARS-CoV-2 infectivity
SARS-CoV-2 [2]; MPLS 8 and 40 μM, strong trend
  pathogenicity of VERO cell culture media following infection (TCID50): reduce the pathogenicity
[3]
  protection against cell death following infection with SARS-CoV-2: almost completely protected VERO cell against cell death
SARS-CoV-2 [4]
  SARS-CoV-2 RNA concentration in the media (qPCR): significantly decreased
SARS-CoV-2 [5]
  SARS-CoV-2 infectivity (TCID50): reduced SARS-CoV-2 infectivity
[6]; 0.25 h, average of patients
  Blood plasma level of monepantel sulfone, Average: 0.00 ∞M
[6]; 0.25 h, individual patients
  Blood plasma level of monepantel sulfone: 0 ng/ml (3×) and 5.4 ng/ml
[6]; 0.5 h, average of patients
  Blood plasma level of monepantel sulfone, Average: 0.05 ∞M
[6]; 0.5 h, individual patients
  Blood plasma level of monepantel sulfone: 8.63 ng/mL and 37.5 ng/mL and 32.1 ng/mL and 13.1 ng/mL
[6]; 1 h, average of patients
  Blood plasma level of monepantel sulfone, Average: 0.29 ∞M
[6]; 1 h, individual patients
  Blood plasma level of monepantel sulfone: 65.5 ng/mL and 152 ng/mL and 252 ng/mL and 125 ng/mL
[6]; 2 h, average of patients
  Blood plasma level of monepantel sulfone, Average: 0.86 ∞M
[6]; 2 h, individual patients
  Blood plasma level of monepantel sulfone: 266 ng/mL and 482 ng/mL and 639 ng/mL and 360 ng/mL
[6]; 4 h, average of patients
  Blood plasma level of monepantel sulfone, Average: 1.77 ∞M
[6]; 4 h, individual patients
  Blood plasma level of monepantel sulfone: 1050 ng/mL and 663 ng/mL and 1140 ng/mL
[6]; 8 h, average of patients
  Blood plasma level of monepantel sulfone, Average: 1.13 ∞M
[6]; 8 h, individual patients
  Blood plasma level of monepantel sulfone: 637 ng/mL and 398 ng/mL and 689 ng/mL
[6]; 12 h, average of patients
  Blood plasma level of monepantel sulfone, Average: 0.68 ∞M
[6]; 12 h, individual patients
  Blood plasma level of monepantel sulfone: 276 ng/mL and 348 ng/mL and 351 ng/mL
[6]; 24 h, average of patients
  Blood plasma level of monepantel sulfone, Average: 0.45 ∞M
[6]; 24 h, individual patients
  Blood plasma level of monepantel sulfone: 179 ng/mL and 258 ng/mL and 214 ng/mL
[6]; pre-dose D3, average of patients
  Blood plasma level of monepantel sulfone, Average: 267.8 ng/ml and 0.53 ∞M
[6]; pre-dose D3, individual patients
  Blood plasma level of monepantel sulfone: 269 ng/mL and 240 ng/mL and 285 ng/mL and 277 ng/mL
[6]; pre-dose D4, average of patients
  Blood plasma level of monepantel sulfone, Average: 272.3 ng/ml and 0.54 ∞M
[6]; pre-dose D4, individual patients
  Blood plasma level of monepantel sulfone: 291 ng/ml (2×) and 231 ng/ml and 276 ng/ml
[6]; pre-dose D5, average of patients
  Blood plasma level of monepantel sulfone, Average: 238.3 ng/ml and 0.47 ∞M
[6]; pre-dose D5, individual patients
  Blood plasma level of monepantel sulfone: 233 ng/mL and 229 ng/mL and 250 ng/mL and 241 ng/mL
[6]; pre-dose D6, average of patients
  Blood plasma level of monepantel sulfone, Average: 214.3 ng/ml and 0.42 ∞M
[6]; pre-dose D6, individual patients
  Blood plasma level of monepantel sulfone: 232 ng/mL and 205 ng/mL and 216 ng/mL and 204 ng/mL
[6]; pre-dose D7, average of patients
  Blood plasma level of monepantel sulfone, Average: 205.0 ng/ml and 10.41 ∞M
[6]; pre-dose D7, individual patients
  Blood plasma level of monepantel sulfone: 215 ng/mL and 188 ng/mL and 235 ng/mL and 182 ng/mL
[6]; pre-dose D14, average of patients
  Blood plasma level of monepantel sulfone, Average: 148.0 ng/ml and 0.29 ∞M
[6]; pre-dose D14, individual patients
  Blood plasma level of monepantel sulfone: 158 ng/mL and 131 ng/mL and 154 ng/mL and 149 ng/mL
[6]; pre-dose D21, average of patients
  Blood plasma level of monepantel sulfone, Average: 147.0 ng/ml and 0.29 ∞M
[6]; pre-dose D21, individual patients
  Blood plasma level of monepantel sulfone: 157 ng/mL and 146 ng/mL and 138 ng/mL
[6]; pre-dose D28, average of patients
  Blood plasma level of monepantel sulfone, Average: 154.3 ng/ml and 0.31 ∞M
[6]; pre-dose D28, individual patients
  Blood plasma level of monepantel sulfone: 180 ng/mL and 162 ng/mL and 121 ng/mL
[6]; plasma, oral, 5 mg/kg bw, 0.25 h, average of patients, read-out: Blood plasma level of monepantel sulfone, Average
  concentration at 0.25 h: 1.4 ng/mL
[6]; plasma, oral, 5 mg/kg bw, 0.5 h, average of patients, read-out: Blood plasma level of monepantel sulfone, Average
  concentration at 0.5 h: 22.8 ng/mL
[6]; plasma, oral, 5 mg/kg bw, 1 h, average of patients, read-out: Blood plasma level of monepantel sulfone, Average
  concentration at 1 h: 149 ng/mL
[6]; plasma, oral, 5 mg/kg bw, 2 h, average of patients, read-out: Blood plasma level of monepantel sulfone, Average
  concentration at 2 h: 437 ng/mL
[6]; plasma, oral, 5 mg/kg bw, 4 h, average of patients, read-out: Blood plasma level of monepantel sulfone, Average
  concentration at 4 h: 896 ng/mL
[6]; plasma, oral, 5 mg/kg bw, 4 h, individual patients, read-out: Blood plasma level of monepantel sulfone
  concentration at 4 h: 732 ng/mL
[6]; plasma, oral, 5 mg/kg bw, 8 h, average of patients, read-out: Blood plasma level of monepantel sulfone, Average
  concentration at 8 h: 572 ng/mL
[6]; plasma, oral, 5 mg/kg bw, 8 h, individual patients, read-out: Blood plasma level of monepantel sulfone
  concentration at 8 h: 565 ng/mL
[6]; plasma, oral, 5 mg/kg bw, 12 h, average of patients, read-out: Blood plasma level of monepantel sulfone, Average
  concentration at 12 h: 346 ng/mL
[6]; plasma, oral, 5 mg/kg bw, 12 h, individual patients, read-out: Blood plasma level of monepantel sulfone
  concentration at 12 h: 409 ng/mL
[6]; plasma, oral, 5 mg/kg bw, 24 h, average of patients, read-out: Blood plasma level of monepantel sulfone, Average
  concentration at 24 h: 226 ng/mL
[6]; plasma, oral, 5 mg/kg bw, 24 h, individual patients, read-out: Blood plasma level of monepantel sulfone
  concentration at 24 h: 254 ng/mL
